Experimental data reported in US20220119354A1, “DIAMINO-SUBSTITUTED PYRIDINES AND PYRIMIDINES AS HERBICIDES” (FMC Corporation, priority 2019, published 2022).

Experiments:
Type in all cases: in vivo
[1] = test system: barnyardgrass (Echinochloa crus-galli); assay: Test A preemergence, barnyardgrass; conditions: 0 to 100 scale; for Barnyardgrass plant response rating: 0 is no effect, 100 is complete control
Method in brief: (§1)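 0–100 visual control rating, ~10 d post-treatment, greenhouse. Pre = directed soil spray on seeded loam/sand; post = spray at 1–2 leaf stage. Surfactant-containing solvent formulation.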

[2] = test system: kochia (Kochia scoparia); assay: Test A preemergence, kochia; conditions: 0 to 100 scale; for Kochia plant response rating: 0 is no effect, 100 is complete control
Method in brief: as §1

[3] = test system: ragweed (common ragweed, Ambrosia elatior); assay: Test A preemergence, ragweed; conditions: 0 to 100 scale; for Ragweed plant response rating: 0 is no effect, 100 is complete control
Method in brief: as §1

[4] = test system: ryegrass, Italian (Lolium multiflorum); assay: Test A preemergence, Italian ryegrass; conditions: 0 to 100 scale; for Ryegrass, Italian plant response rating: 0 is no effect, 100 is complete control
Method in brief: as §1

[5] = test system: foxtail, giant (Setaria faberii); assay: Test A preemergence, giant foxtail; conditions: 0 to 100 scale; for Foxtail, Giant plant response rating: 0 is no effect, 100 is complete control
Method in brief: as §1

[6] = test system: pigweed (Amaranthus retroflexus); assay: Test A preemergence, pigweed; conditions: 0 to 100 scale; for Pigweed plant response rating: 0 is no effect, 100 is complete control
Method in brief: as §1

[7] = test system: barnyardgrass (Echinochloa crus-galli); assay: Test A postemergence, barnyardgrass; conditions: 0 to 100 scale
Method in brief: as §1

[8] = test system: kochia (Kochia scoparia); assay: Test A postemergence, kochia; conditions: 0 to 100 scale
Method in brief: as §1

[9] = test system: ragweed (common ragweed, Ambrosia elatior); assay: Test A postemergence, ragweed; conditions: 0 to 100 scale
Method in brief: as §1

[10] = test system: ryegrass, Italian (Lolium multiflorum); assay: Test A postemergence, Italian ryegrass; conditions: 0 to 100 scale
Method in brief: as §1

[11] = test system: foxtail, giant (Setaria faberii); assay: Test A postemergence, giant foxtail; conditions: 0 to 100 scale
Method in brief: as §1

[12] = test system: pigweed (Amaranthus retroflexus); assay: Test A postemergence, pigweed; conditions: 0 to 100 scale
Method in brief: as §1

[13] = test system: wheat (Triticum aestivum); assay: Test A postemergence, wheat; conditions: 0 to 100 scale
Method in brief: as §1

[14] = test system: corn (Zea mays); assay: Test A postemergence, corn; conditions: 0 to 100 scale
Method in brief: as §1

[15] = test system: blackgrass (Alopecurus myosuroides); assay: Test A postemergence, blackgrass; conditions: 0 to 100 scale
Method in brief: as §1

[16] = test system: galium (catchweed bedstraw, Galium aparine); assay: Test A postemergence, galium; conditions: 0 to 100 scale
Method in brief: as §1

[17] = test system: rice (Oryza sativa); assay: Test B flooded paddy test, rice; conditions: Flood, 250 g ai/ha, applied to paddy water, 2-leaf stage, visual evaluation after 13 to 15 d
Method in brief: (§2)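 Each response is a visual 0–100 rating made against untreated controls, where 0 is no effect and 100 is complete control; a dash marks no result. Compound was dosed into 3 cm paddy water over 2-leaf plants, assessed after 13 to 15 d.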

[18] = test system: sedge, umbrella (small-flower umbrella sedge, Cyperus difformis); assay: Test B flooded paddy test, umbrella sedge; conditions: Flood, 250 g ai/ha, applied to paddy water, 2-leaf stage, visual evaluation after 13 to 15 d
Method in brief: as §2

[19] = test system: ducksalad (Heteranthera limosa); assay: Test B flooded paddy test, ducksalad; conditions: Flood, 250 g ai/ha, applied to paddy water, 2-leaf stage, visual evaluation after 13 to 15 d
Method in brief: as §2

[20] = test system: barnyardgrass (Echinochloa crus-galli); assay: Test B flooded paddy test, barnyardgrass; conditions: Flood, 250 g ai/ha, applied to paddy water, 2-leaf stage, visual evaluation after 13 to 15 d
Method in brief: as §2

[21] = 125 g ai/ha, 0 no effect, 100 complete control
[22] = 500 g ai/ha, 0 no effect, 100 complete control

CC(Nc1ncc(C#N)c(N)n1)c1cc2ccccc2o1 (racemic) [Compound 19]
Plant response rating, Barnyardgrass ([1]; 125 g ai/ha): 0 | Plant response rating, Barnyardgrass ([1]; 500 g ai/ha): 0 | Plant response rating, Kochia ([2]; 125 g ai/ha): 0 | Plant response rating, Kochia ([2]; 500 g ai/ha): 20 | Plant response rating, Ragweed ([3]; 125 g ai/ha): 0 | Plant response rating, Ragweed ([3]; 500 g ai/ha): 50 | Plant response rating, Ryegrass, Italian ([4]; 125 g ai/ha): 0 | Plant response rating, Ryegrass, Italian ([4]; 500 g ai/ha): 60 | Plant response rating, Foxtail, Giant ([5]; 125 g ai/ha): 0 | Plant response rating, Foxtail, Giant ([5]; 500 g ai/ha): 20 | Plant response rating, Pigweed ([6]; 125 g ai/ha): 30 | Plant response rating, Pigweed ([6]; 500 g ai/ha): 90 | Plant response rating, Barnyardgrass ([7]; 125 g ai/ha): 0 | Plant response rating, Barnyardgrass ([7]; 500 g ai/ha): 0 | Plant response rating, Kochia ([8]; 125 g ai/ha): 0 | Plant response rating, Kochia ([8]; 500 g ai/ha): 30 | Plant response rating, Ragweed ([9]; 125 g ai/ha): 0 | Plant response rating, Ragweed ([9]; 500 g ai/ha): 0 | Plant response rating, Ryegrass, Italian ([10]; 125 g ai/ha): 0 | Plant response rating, Ryegrass, Italian ([10]; 500 g ai/ha): 20 | Plant response rating, Foxtail, Giant ([11]; 125 g ai/ha): 0 | Plant response rating, Foxtail, Giant ([11]; 500 g ai/ha): 0 | Plant response rating, Pigweed ([12]; 125 g ai/ha): 0 | Plant response rating, Pigweed ([12]; 500 g ai/ha): 50 | Plant response rating, Wheat ([13]; 125 g ai/ha): 0 | Plant response rating, Wheat ([13]; 500 g ai/ha): 0 | Plant response rating, Corn ([14]; 125 g ai/ha): 0 | Plant response rating, Corn ([14]; 500 g ai/ha): 10 | Plant response rating, Blackgrass ([15]; 125 g ai/ha): 20 | Plant response rating, Blackgrass ([15]; 500 g ai/ha): 60 | Plant response rating, Galium ([16]; 125 g ai/ha): 0 | Plant response rating, Galium ([16]; 500 g ai/ha): 70 | Plant response rating, Rice (0 to 100 scale, 0 is no effect, 100 is complete control) [17]: 0 | Plant response rating, Sedge, Umbrella (0 to 100 scale, 0 is no effect, 100 is complete control) [18]: 0 | Plant response rating, Ducksalad (0 to 100 scale, 0 is no effect, 100 is complete control) [19]: 0 | Plant response rating, Barnyardgrass (0 to 100 scale, 0 is no effect, 100 is complete control) [20]: 0

CC(Nc1ncc(S(C)(=O)=O)c(N)n1)c1cc2ccccc2s1 (stereo not drawn) [Compound 107]
Barnyardgrass plant response rating ([1]; 125 g ai/ha): 20 | Barnyardgrass plant response rating ([1]; 500 g ai/ha): 100 | Kochia plant response rating ([2]; 125 g ai/ha): 80 | Kochia plant response rating ([2]; 500 g ai/ha): 100 | Ragweed plant response rating ([3]; 125 g ai/ha): 100 | Ragweed plant response rating ([3]; 500 g ai/ha): 100 | Ryegrass, Italian plant response rating ([4]; 125 g ai/ha): 50 | Ryegrass, Italian plant response rating ([4]; 500 g ai/ha): 90 | Foxtail, Giant plant response rating ([5]; 125 g ai/ha): 30 | Foxtail, Giant plant response rating ([5]; 500 g ai/ha): 100 | Pigweed plant response rating ([6]; 125 g ai/ha): 60 | Pigweed plant response rating ([6]; 500 g ai/ha): 100 | Plant response rating, Barnyardgrass [7, 21]: 20 | Plant response rating, Barnyardgrass [7, 22]: 100 | Plant response rating, Kochia [8, 21]: 50 | Plant response rating, Kochia [8, 22]: 90 | Plant response rating, Ragweed [9, 21]: 40 | Plant response rating, Ragweed [9, 22]: 100 | Plant response rating, Ryegrass, Italian [10, 21]: 0 | Plant response rating, Ryegrass, Italian [10, 22]: 40 | Plant response rating, Foxtail, Giant [11, 21]: 10 | Plant response rating, Foxtail, Giant [11, 22]: 60 | Plant response rating, Pigweed [12, 21]: 80 | Plant response rating, Pigweed [12, 22]: 100 | Plant response rating, Wheat [13, 21]: 0 | Plant response rating, Wheat [13, 22]: 30 | Plant response rating, Corn [14, 21]: 0 | Plant response rating, Corn [14, 22]: 30 | Plant response rating, Blackgrass [15, 21]: 0 | Plant response rating, Blackgrass [15, 22]: 80 | Plant response rating, Galium [16, 21]: 70 | Plant response rating, Galium [16, 22]: 80 | Plant response rating, Rice (0 to 100 scale, 0 is no effect, 100 is complete control) [17]: 0 | Plant response rating, Sedge, Umbrella (0 to 100 scale, 0 is no effect, 100 is complete control) [18]: 75 | Plant response rating, Ducksalad (0 to 100 scale, 0 is no effect, 100 is complete control) [19]: 70 | Plant response rating, Barnyardgrass (0 to 100 scale, 0 is no effect, 100 is complete control) [20]: 45
